Key:
[1] = test system: Enterobacter aerogenes MDR Ea289; experiment: MIC of antibiotics ± test compound (MIC ratio), micro-broth dilution; assay type: cell-based; conditions: compound at MIC/4, Set 2; for MIC ratio (*) on Ea289 Dox: doxycycline; for MIC ratio (*) on Ea289 Nal: nalidixic acid
[2] = test system: Salmonella Thyphimurium MDR BN10055; experiment: as above; assay type: cell-based, Salmonella enterica serovar Typhimurium; conditions: for MIC ratio (*) on BN10055 Chl: chloramphenicol; for MIC ratio (*) on BN10055 Dox: doxycycline; for MIC ratio (*) on BN10055 Nal: nalidixic acid
Experimental: (§1) The Enterobacter aerogenes Ea289 strain is a Kans derivative of the MDR clinical isolate Ea27, the acrB mutant, EaEP294, was constructed from Ea289. Multidrug-resistant Salmonella enterica serovar Typhimurium DT104 strains (BN10055) was isolated from cattle in France, the isogenic acrB derivative mutant, BN10055ΔacrB, was constructed from BN10055. Strains were maintained at −80° C. in 25% (v/v) glycerol for cryoprotection. Bacteria were routinely grown in Mueller-Hinton (MH) broth at 37° C.
(§2) Susceptibilities to antibiotics and compounds were determined in microplates by broth dilution method, as previously described. Minimal Inhibitory Concentrations (MICs) were determined with an inoculum of 10^6 CFU in 200 μL of MH broth containing two-fold serial dilutions of each drug. […] All MIC determinations were repeated at least three times in independent experiments.
(§3) […] All MIC determinations were repeated at least three times in independent experiments. The MIC ratio corresponds to the ratio of the MIC of an antibiotic alone to the MIC of the same antibiotic in the presence of the tested compound (at MIC/4).
(§4) For reminder, the MIC ratio corresponds to the ratio of the MIC of the assessed antibiotic alone to the MIC of the same antibiotic in the presence of the tested compound (at MIC/4).

[3] = test system: Enterobacter aerogenes MDR Ea289; experiment: as above; assay type: cell-based
Experimental: The process consists of treating the MDR bacteria with the compounds of the invention in the presence of antibiotics.
as §2
The MICs of chloramphenicol±test compounds (MIC/4) were determined by the micro-broth dilution method (9). All MIC determinations were repeated at least three times in independent experiments. The MIC ratio corresponds to the ratio of the MIC of an antibiotic alone to the MIC of the same antibiotic in the presence of the tested compound (at MIC/4).
The compounds listed in Table 2 were tested for their ability to decrease the chloramphenicol MIC of Ea289, an Enterobacter aerogenes MDR strain (1). Each compound was first tested at MIC/4. […] All MIC determinations were repeated at least three times in independent experiments.
as §4

[4] = test system: strain IV2571223 - Escherichia coli pig (sensible); experiment: MIC of antibiotics in the presence and absence of test compound, veterinary strains; assay type: cell-based; design: MIC for strain IV2571223, Doxycycline in the presence of test compound: unit not given beside the values; conditions: compound at the Concentration (μM) (2-50)
Experimental: (§5) For each strain and each antibiotic, the MICs were determined in the presence and in the absence of one test compound.

[5] = test system: strain IV2571418 - Escherichia coli pig (resistant); experiment: as above; assay type: cell-based; design: MIC for strain IV2571418, Doxycycline in the presence of test compound: unit not given beside the values; conditions: compound at the Concentration (μM) (4-50)
Experimental: as §5

[6] = test system: strain IV2570060 - Escherichia coli cattle (sensible); experiment: as above; assay type: cell-based; conditions: compound at the Concentration (μM) (4-50)
Experimental: as §5

[7] = test system: strain IV2570533 - Escherichia coli cattle (resistant); experiment: as above; assay type: cell-based; conditions: compound at the Concentration (μM) (0.896-12.6)
Experimental: as §5

BN10055ΔacrB = experiment: MIC of antibiotics ± test compound (MIC ratio), micro-broth dilution; assay type: cell-based, Salmonella enterica serovar Typhimurium; conditions: compound at MIC/4, Set 1
Experimental: as §1, §2, §3, §4

CHO cells = experiment: Toxicity on CHO cultured cells; assay type: cell-based; conditions: Cricetulus griseus; killing of 50% of the CHO cells after 24 hours of incubation
Experimental: The toxicity of each compound was determined on CHO cultured cells. Incubation of CHO cells was performed with serial dilution of compounds. The compounds are either solubilized in DMSO or in PBS. The IC50 corresponds to the concentration of compounds leading to a killing of 50% of the CHO cells after 24 hours of incubation.

Ea289ΔacrB (Ea294) = experiment: MIC of antibiotics ± test compound (MIC ratio), micro-broth dilution; assay type: cell-based, Enterobacter aerogenes; conditions: compound at MIC/4, Set 1
Experimental: as §1, §2, §3, §4

[8] = chloramphenicol, compound at MIC/4, Set 2
[9] = erythromycin, compound at MIC/4, Set 1
[10] = doxycycline and nalidixic acid, Set 2

| SMILES | MIC ratio (*) on Ea289 Dox [1] | MIC ratio (*) on Ea289 Nal [1] | MIC ratio (*) on BN10055 Chl ([2]; compound at MIC/4, Set 2) | MIC ratio (*) on BN10055 Dox ([2]; compound at MIC/4, Set 2) | MIC ratio (*) on BN10055 Nal ([2]; compound at MIC/4, Set 2) | MIC ratio (*) on Ea289 Chl [3, 8] | other results |
| --- | --- | --- | --- | --- | --- | --- | --- |
| CC(C)=CCC/C(C)=C/CNCCCN(C)CCCN [Compound 13, {3-[(3-Amino-propyl)-methyl-amino]-propyl}-((E)-3,7-dimethyl-octa-2,6-dienyl)-amine] | 16 | 8 | 8-16 | 16 | 32 | 16 | – |
| CC(C)=CCC/C(C)=C/CC/C(C)=C/CNCCCCN [Compound 17] | 64 | 16 | 8 | 16 | 64 | 8-16 | – |
| CC(C)=CCC/C(C)=C/CC/C(C)=C/CNCCCN1CCN(CCCN)CC1 [Compound 15, {3-[4-(3-Amino-propyl)-piperazin-1-yl]-propyl}-((2E,6E)-3,7,11-trimethyl-dodeca-2,6,10-trienyl)-amine] | 128 | 32 | 8 | 32 | 64 | 8 | MIC for strain IV2571223, Doxycycline in the presence of test compound [4]: 0.0625; MIC for strain IV2571223, Tylosine in the presence of test compound [4]: 32; MIC for strain IV2571418, Doxycycline in the presence of test compound [5]: 4; MIC for strain IV2571418, Tylosine in the presence of test compound [5]: 32; MIC for strain IV2570060, Doxycycline in the presence of test compound [6]: 0.125; MIC for strain IV2570060, Tylosine in the presence of test compound [6]: 32; MIC for strain IV2570533, Doxycycline in the presence of test compound [7]: 2; MIC for strain IV2570533, Tylosine in the presence of test compound [7]: 32 |
| CC(C)=CCC/C(C)=C/CC/C(C)=C/CNCCCN1CCCC1 [Compound 22] | 32 | 16 | 16 | 32 | 128 | 8-16 | – |
| CC(C)=CCC/C(C)=C/CC/C(C)=C/CNCCCN(CCCN)CCCN [Compound 9, {3-[Bis-(3-amino-propyl)-amino]-propyl}-(3,7,11-trimethyl-dodeca-2,6,10-trienyl)-amine] | 16 | 16 | 16 | 8 | 128 | 32 | MIC ratio (*) on BN10055 Chl ([2]; compound at MIC/4, Set 1): 16; MIC ratio(*) on BN10055 Ery [2, 9]: 32; MIC ratio (*) on BN10055 Nal ([2]; compound at MIC/4, Set 1): 128; MIC ratio(*) on BN10055ΔacrB Chl (BN10055ΔacrB; chloramphenicol): 2; MIC ratio(*) on BN10055ΔacrB Ery (BN10055ΔacrB; erythromycin): 8; MIC ratio(*) on BN10055ΔacrB Nal (BN10055ΔacrB; nalidixic acid): 8; IC50 (CHO cells): 0.132 mM; MIC ratio(*) on Ea289ΔacrB Chl (Ea289ΔacrB (Ea294); chloramphenicol): 4; MIC ratio(*) on Ea289ΔacrB Ery (Ea289ΔacrB (Ea294); erythromycin): 8; MIC ratio(*) on Ea289ΔacrB Nal (Ea289ΔacrB (Ea294); nalidixic acid): 128; Effective concentration (mM) for a MIC ratio of chloramphenicol ≥ 8 on Ea289 ([3]; chloramphenicol): 0.0078 mM; efficient concentration, times lower than the control PAβN ([3]; chloramphenicol MIC ratio of 8 on Ea289): about 4.9 times; activity, effective concentration compared with PAβN to reach a MIC ratio of 8 ([3]; chloramphenicol on Ea289): strong activity; MIC ratio (*) on Ea289 Chl ([3]; chloramphenicol, compound at MIC/4, Set 1): 32; MIC ratio(*) on Ea289 Ery [3, 9]: 16-32; MIC ratio (*) on Ea289 Nal ([3]; nalidixic acid, compound at MIC/4, Set 1): 16 |
| CC(C)=CCC/C(C)=C/CC/C(C)=C/CNCCCN [Compound 16] | 64 | 16 | 16-32 | 32 | 128 | 8-16 | – |
| CC(C)=CCC/C(C)=C/CC/C(C)=C/CNCCCN1CCOCC1 [Compound 23] | 32 | 8 | 8 | 16 | 32 | 8 | – |
| CC(C)=CCC/C(C)=C/CC/C(C)=C/CNCCNCCNCCNCCNCCN [Compound 35, [2-(2-{2-[2-(2-Amino-ethylamino)-ethylamino]-ethylamino}-ethylamino)-ethyl]-(3,7,11-trimethyl-dodeca-2,6,10-trienyl)-amine] | – | – | – | – | – | – | MICs for doxycycline and nalidixic acid, BN100055 [2, 10]: > 8; MIC for strain IV2571223, Doxycycline in the presence of test compound [4]: 0.0625; MIC for strain IV2571223, Tylosine in the presence of test compound [4]: 32; MICs for doxycycline and nalidixic acid, Ea289 [3, 10]: > 8; MIC for strain IV2571418, Doxycycline in the presence of test compound [5]: 2; MIC for strain IV2571418, Tylosine in the presence of test compound [5]: 8; MIC for strain IV2570060, Doxycycline in the presence of test compound [6]: 0.0625; MIC for strain IV2570060, Tylosine in the presence of test compound [6]: 8; MIC for strain IV2570533, Doxycycline in the presence of test compound [7]: 1; MIC for strain IV2570533, Tylosine in the presence of test compound [7]: 4 |
| CC(C)=CCC/C(C)=C/CC/C(C)=C/CNCCCNCCCN [Compound 20] | 32 | 8 | 8 | 32 | 64 | 8 | – |
| CC(C)=CCC/C(C)=C/CC/C(C)=C/CNCCCCCN [Compound 18] | 64 | 8 | 4-8 | 16 | 16 | 8-16 | – |
| CCN(CC)CCNCCCNC/C=C(\C)CCC=C(C)C [Compound 21] | 32 | 8 | 16 | 32 | 64 | 8-16 | – |
| CC(C)=CCC/C(C)=C/CC/C(C)=C/CNCCCNCCCCN [Compound 19] | 64 | 16 | 8-16 | 16 | 64 | 8-16 | – |
